Measurements as given in ChEMBL document CHEMBL5725203, “Quinazolinone compounds and derivatives thereof” (2016).

Legend:
[1] = target: Poly [ADP-ribose] polymerase 2 (Homo sapiens, UniProt Q9UGN5); assay: (§1) Biochemical Assay: PARP1 biochemical assay was purchased as a kit from Trevigen (cat.#4676-096-K) and used per manufacturers recommendations.PARP2 biochemical assay was purchased as a kit from BPS (cat.#80552) and used per manufacturers recommendations.
[2] = target: Poly [ADP-ribose] polymerase 1 (Homo sapiens, UniProt P09874); assay: as §1
Chain of Poly [ADP-ribose] polymerase 1 (P09874 whole entry): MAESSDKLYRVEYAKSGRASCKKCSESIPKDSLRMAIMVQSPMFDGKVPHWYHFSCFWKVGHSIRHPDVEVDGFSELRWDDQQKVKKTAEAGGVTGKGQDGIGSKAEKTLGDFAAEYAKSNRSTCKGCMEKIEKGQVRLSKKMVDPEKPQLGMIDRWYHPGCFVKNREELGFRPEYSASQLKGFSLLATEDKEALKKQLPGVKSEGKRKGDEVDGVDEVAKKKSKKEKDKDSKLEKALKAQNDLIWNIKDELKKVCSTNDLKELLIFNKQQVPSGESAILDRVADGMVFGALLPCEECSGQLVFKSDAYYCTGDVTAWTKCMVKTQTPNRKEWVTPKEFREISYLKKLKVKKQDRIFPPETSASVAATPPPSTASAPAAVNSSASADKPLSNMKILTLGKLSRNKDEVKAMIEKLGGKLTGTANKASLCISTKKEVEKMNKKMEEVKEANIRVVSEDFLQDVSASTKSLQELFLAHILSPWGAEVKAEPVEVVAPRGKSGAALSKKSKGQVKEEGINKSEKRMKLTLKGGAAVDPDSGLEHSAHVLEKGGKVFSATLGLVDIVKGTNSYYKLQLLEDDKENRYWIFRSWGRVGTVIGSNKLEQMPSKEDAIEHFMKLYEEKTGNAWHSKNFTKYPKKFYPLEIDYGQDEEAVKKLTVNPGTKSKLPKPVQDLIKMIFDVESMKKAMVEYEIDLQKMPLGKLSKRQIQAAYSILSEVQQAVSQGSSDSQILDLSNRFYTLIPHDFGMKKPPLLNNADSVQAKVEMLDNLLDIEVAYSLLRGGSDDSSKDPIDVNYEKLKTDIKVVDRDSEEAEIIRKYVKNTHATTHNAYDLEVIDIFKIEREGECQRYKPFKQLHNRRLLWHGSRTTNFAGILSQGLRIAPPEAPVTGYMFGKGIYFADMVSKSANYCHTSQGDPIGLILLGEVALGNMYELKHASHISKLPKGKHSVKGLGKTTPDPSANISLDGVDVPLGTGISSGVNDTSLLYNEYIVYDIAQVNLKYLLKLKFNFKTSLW

Chain of Poly [ADP-ribose] polymerase 2 (Q9UGN5 whole entry): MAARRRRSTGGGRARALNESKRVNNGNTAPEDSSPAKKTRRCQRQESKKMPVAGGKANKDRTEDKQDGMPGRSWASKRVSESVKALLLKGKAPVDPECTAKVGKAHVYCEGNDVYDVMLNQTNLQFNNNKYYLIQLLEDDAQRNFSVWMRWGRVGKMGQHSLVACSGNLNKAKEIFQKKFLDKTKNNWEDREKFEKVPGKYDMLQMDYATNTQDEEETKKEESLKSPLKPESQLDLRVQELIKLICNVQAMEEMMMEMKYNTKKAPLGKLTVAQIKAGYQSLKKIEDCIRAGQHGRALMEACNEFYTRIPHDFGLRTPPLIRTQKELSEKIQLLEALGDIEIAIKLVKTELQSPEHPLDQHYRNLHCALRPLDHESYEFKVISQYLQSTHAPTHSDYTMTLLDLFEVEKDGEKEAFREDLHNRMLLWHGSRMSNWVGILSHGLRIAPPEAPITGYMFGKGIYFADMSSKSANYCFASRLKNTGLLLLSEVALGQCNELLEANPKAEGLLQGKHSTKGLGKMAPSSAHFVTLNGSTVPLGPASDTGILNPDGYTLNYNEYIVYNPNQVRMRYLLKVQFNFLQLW

Row | SMILES | IC50 [1] | IC50 [2]
1 | O=C(CCSc1nc2ccccc2c(=O)[nH]1)N[C@H]1CC[C@H](c2nnc(-c3ccncc3)o2)CC1 | 3020 nM | 10200 nM
2 | COc1ccc2c(c1)[nH]c(=O)n2C1CCN(C(=O)CCCc2nc3ccccc3c(=O)[nH]2)CC1 | 160 nM | 1780 nM
3 | O=C(CCCc1nc2ccccc2c(=O)[nH]1)N[C@H]1CC[C@H](Oc2ccccc2)C1 | 893 nM | 1290 nM
4 | O=C(CCc1nc2ccccc2c(=O)[nH]1)N[C@H]1CC[C@H](n2c(=O)oc3ccccc32)CC1 | 3080 nM | 2260 nM
5 | O=C(CCc1cc(=O)n2ccccc2n1)N[C@H]1CC[C@H](c2nnc(-c3ccccc3)o2)CC1 |  | > 85000 nM
6 | O=C1Nc2cc(Cl)ccc2C1C1CCN(C(=O)CCCc2nc3ccccc3c(=O)[nH]2)CC1 (racemic) | 251 nM | 7350 nM

Continued, values first:

Row | IC50 [1] | IC50 [2] | SMILES
7 | 1440 nM | 5570 nM | O=C(CCCc1nc2ccccc2c(=O)[nH]1)N1CCC(c2noc3ccc(F)cc23)CC1
8 | 333 nM | 992 nM | O=C(CCCc1nc2ccccc2c(=O)[nH]1)N1CCN(c2noc3ccccc23)CC1
9 | 1370 nM | 2260 nM | O=C(CCCc1nc2ccccc2c(=O)[nH]1)N1CCC(n2nnc3ccccc32)CC1
